From US8008320B2, “3-(indolyl)-4-arylmaleimide derivatives and their use as angiogenesis inhibitors” (Johannes Gutenberg-Universitatis, priority 2004, dated 2011)

melting point | SMILES
162 °C | COc1cc(C2=C(c3c[nH]c4ncccc34)C(=O)NC2=O)cc(OC)c1OC [Example 8, 3-(7-Azaindol-3-yl)-4-(3,4,5-trimethoxyphenyl)-1H-pyrrole-2,5-dione]
210 °C | COc1ccc(C2=C(c3c[nH]c4ccccc34)C(=O)NC2=O)cc1OC [Example 2, 3-(Indole-3-yl)-4-(3,4-dimethoxyphenyl)-1H-pyrrole-2,5-dione]
268 °C | COc1ccc2[nH]cc(C3=C(c4cc(OC)c(OC)c(OC)c4)C(=O)NC3=O)c2c1 [Example 3, 3-(5-Methoxyindole-3-yl)-4-(3,4,5-trimethoxyphenyl)-1H-pyrrole-2,5-dione]
304 °C | COc1cc(C2=C(c3c(-c4ccccc4)[nH]c4ccccc34)C(=O)NC2=O)cc(OC)c1OC [Example 6, 3-(2-Phenylindole-3-yl)-4-(3,4,5-trimethoxyphenyl)-1H-pyrrole-2,5-dione]
187 °C | COc1cc(C2=C(c3cn(C)c4ccccc34)C(=O)NC2=O)cc(OC)c1OC [Example 4, 3-(1-Methylindole-3-yl)-4-(3,4,5-trimethoxyphenyl)-1H-pyrrole-2,5-dione]
266 °C | COc1cc(C2=C(c3c(C)[nH]c4ccccc34)C(=O)NC2=O)cc(OC)c1OC [Example 5, 3-(2-Methylindole-3-yl)-4-(3,4,5-trimethoxyphenyl)-1H-pyrrole-2,5-dione]
252 °C | COc1cc(C2=C(c3cc4ccccc4[nH]3)C(=O)NC2=O)cc(OC)c1OC [Example 7, 3-(Indole-2-yl)-4-(3,4,5-trimethoxyphenyl)-1H-pyrrole-2,5-dione]
